# Results as given in BindingDB's records for doi:10.1016/0024-3205(85)90028-1 (Universit&Eacute, 1985).
# Where a name gives a salt, the structure may show the parent alone.
# Molecular target: D(1A) dopamine receptor (Rattus norvegicus, UniProt P18901)
# Sequence (P18901 whole entry): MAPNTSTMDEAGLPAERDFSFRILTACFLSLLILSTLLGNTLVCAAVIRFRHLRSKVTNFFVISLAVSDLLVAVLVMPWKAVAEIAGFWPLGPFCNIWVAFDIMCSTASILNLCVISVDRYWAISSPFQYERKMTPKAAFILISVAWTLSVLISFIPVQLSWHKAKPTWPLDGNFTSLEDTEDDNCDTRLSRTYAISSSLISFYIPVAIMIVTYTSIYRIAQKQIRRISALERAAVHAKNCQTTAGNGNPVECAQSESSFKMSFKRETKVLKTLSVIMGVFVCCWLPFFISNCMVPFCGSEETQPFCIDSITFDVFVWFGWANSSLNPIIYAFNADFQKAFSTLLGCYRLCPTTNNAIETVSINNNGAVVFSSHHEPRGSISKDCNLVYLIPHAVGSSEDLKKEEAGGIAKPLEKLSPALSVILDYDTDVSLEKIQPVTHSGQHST
row,Structure (SMILES),Ki [nM]
1,OCCN1CCN(CCCN2c3ccccc3Sc3ccc(C(F)(F)F)cc32)CC1 [2-[4-[3-[2-(trifluoromethyl)phenothiazin-10-yl]propyl]piperazin-1-yl]ethanol;hydrochloride],4.5
2,NC1CCc2cc(O)c(O)cc2C1 (stereo not given),5120
3,"CC(CN1c2ccccc2Sc2ccccc21)N(C)C (stereo not drawn) [N,N,alpha-trimethyl-10H-phenothiazine-10-ethanamine]",1780
4,OCCN1CCN(CCCN2c3ccccc3Sc3ccc(Cl)cc32)CC1 [4-[3-(2-chlorophenothiazin-10-yl)propyl]-1-piperazineethanol],44
5,CN1CCN(CC/C=C2/c3ccccc3Sc3ccc(S(=O)(=O)N(C)C)cc32)CC1 [MLS000028463],1520
6,O=c1[nH]c2ccccc2n1CCCN1CCC(n2c(=O)[nH]c3cc(Cl)ccc32)CC1,> 10000
7,NCCc1c[nH]c2ccc(O)cc12 [[3H]-5-HT],5000
8,"O=c1[nH]c2ccccc2n1C1CCN(CCCC(c2ccc(F)cc2)c2ccc(F)cc2)CC1 [1-(1-(4,4-bis(4-fluorophenyl)butyl)piperidin-4-yl)-1H-benzo[d]imidazol-2(3H)-one]",1420
9,"O=C(c1ccc(F)cc1)C1CCN(CCn2c(=O)[nH]c3ccccc3c2=O)CC1 [3-(2-{4-[(4-fluorophenyl)carbonyl]piperidin-1-yl}ethyl)-1,2,3,4-tetrahydroquinazoline-2,4-dione]",200
10,c1ccc2c(c1)Nc1ccccc1S2 [phenothiazine],> 10000
